# Measurements taken from ChEMBL document CHEMBL5223093, “Recent advances in the discovery of protein tyrosine phosphatase SHP2 inhibitors” (RSC Med Chem, 2022).
# Columns and labels:
# [1] = Downregulation of DUSP6 transcription in human KYSE-520 cells at 30 uM measured after 2 hrs relative to control; type: functional
# [2] = molecular target: T1, Tyrosine-protein phosphatase non-receptor type 11 (Homo sapiens, UniProt Q06124); assay: Inhibition of full length SHP2 (unknown origin) using DiFMUP as substrate preincubated for 30 mins followed by substrate addition
# T1 sequence (Q06124 whole entry): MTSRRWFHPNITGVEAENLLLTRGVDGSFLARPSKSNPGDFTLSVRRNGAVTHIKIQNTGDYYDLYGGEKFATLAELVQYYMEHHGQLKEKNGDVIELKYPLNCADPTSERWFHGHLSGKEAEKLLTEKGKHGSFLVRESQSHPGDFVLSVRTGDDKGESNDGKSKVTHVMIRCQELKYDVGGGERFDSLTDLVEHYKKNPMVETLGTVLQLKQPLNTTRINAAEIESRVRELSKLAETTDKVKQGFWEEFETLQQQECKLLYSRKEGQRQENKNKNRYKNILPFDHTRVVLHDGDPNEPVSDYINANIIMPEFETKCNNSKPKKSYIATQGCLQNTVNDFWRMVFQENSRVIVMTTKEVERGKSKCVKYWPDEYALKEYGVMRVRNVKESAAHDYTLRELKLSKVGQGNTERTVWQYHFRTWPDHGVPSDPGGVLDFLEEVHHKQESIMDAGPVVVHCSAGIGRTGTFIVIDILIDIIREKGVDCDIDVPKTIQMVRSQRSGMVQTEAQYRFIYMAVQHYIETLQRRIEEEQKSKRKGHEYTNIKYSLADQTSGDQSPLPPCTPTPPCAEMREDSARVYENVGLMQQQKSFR
IC50 [2] [pM],SMILES,Activity [1] [%]
,COc1cccc(-c2nnc3n(Cc4ccccc4Cl)c(=O)c4ccccc4n23)c1O,65
,O=C(O)c1ccc(O)c(-c2nnc3n(Cc4ccccc4Cl)c(=O)c4ccccc4n23)c1,55
583,Cc1nc(N2CCC3(CC2)OC[C@@H](C)[C@H]3N)c(CO)nc1-c1cccc(Cl)c1Cl,
,COc1cccc(-c2nnc3n(Cc4ccc(C(=O)N5CCC[C@H]5C(=O)O)cc4Cl)c(=O)c4ccccc4n23)c1O,43
